# Source: patent US8785416B2, “Sulphated disaccharides for the treatment of neurodegenerative and/or neurovascular diseases” (Bioiberica, S.A., priority 2009, dated 2014)
# What was measured:
# rat hippocampal slices = experiment: Oxygen and glucose deprivation (15 minutes OGD, 2 hours reoxygenation) in hippocampal slices, MTT cell viability; assay type: cell-based
# Experimental: Male Spague Dawley strain rats (250-325 g) were used. After anaesthesia by means of an intraperitoneal injection of 60 mg/Kg sodium pentobarbital (Euta-Lender®), they were decapitated with a guillotine and the brain was extracted after a craniotomy. The brain was immediately submersed in a dissection solution, a cold (4° C.) modified Krebs-Henseleit solution at pH 7.4, the composition of which is: 120 mM NaCl, 2 mM KCl, 0.5 mM CaCl2, 26 mM NaHCO3, 10 mM MgSO4, 1.18 mM KH2PO4, 11 mM glucose and 200 mM sucrose, bubbled with 95% O2-5% CO2. The hippocampi were isolated, embedded in 2% low melting point agarose (Sigma-Aldrich), and cut into 350 μm transverse slices in a vibratome (Leica VT1000S).
# After the cutting in the vibratome, the slices were transferred to a vial with sucrose-free dissection Krebs solution, bubbled with 95% O2-5% CO2 for 60 minutes (equilibrium period).
# After the equilibrating period, the medium was removed and an oxygenated solution (normal Krebs solution (120 mM NaCl, 2 mM KCl, 2 mM CaCl2, 26 mM NaHCO3, 1.19 mM MgSO4, 1.18 mM KH2PO4 and 11 mM glucose), bubbled with 5% CO2 and 95% O2 for 30 minutes (preincubation period), was introduced. The baseline slices were maintained in this oxygenated solution throughout the entire experiment. To induce OGD, the oxygenated solution was replaced with another one which lacked glucose and was bubbled with a mixture of gases of 5% CO2 and 95% N2 (anoxic solution). The slices were in a bath at 37° C. After inducing OGD, the anoxic medium was replaced with another one which contained the oxygenated solution (reoxygenation period).
# To evaluate the effect of the compounds, they were incubated for the 30 minutes of the preincubation and throughout the OGD and during the reoxygenation. Two OGD-reoxygenation protocols were used: (i) 1 hour of OGD and 2 hours of reoxygenation and (ii) 15 minutes of OGD followed by 2 hours of reoxygenation.
# When the OGD-reoxygenation protocol (ii): 15 minutes of OGD followed by 2 hours of reoxygenation was used, the slices were incubated with increasing concentrations of compound Ic (0.3 and 1 μM) or with increasing concentrations of compound Ib (1 and 3 μM). In the same study these two compounds of the invention were compared with N-acetylcysteine (NAC) at 10 mM. The baseline (slices in the absence of compound Ic or Ib and of OGD) and the control (slices in the absence of compound Ic or Ib and with OGD) were also included.
# For the protocol of 15 minutes of OGD followed by 2 hours of reoxygenation, the cell viability was evaluated by means of the tetrazolium salt MTT, which is internalized in those cells which are viable and are therefore capable of reducing the tetrazolium to formazan which is an insoluble and coloured product which is deposited in the […]. To that end, after the experiment had ended, the hippocampal slices were incubated with MTT at a final concentration of 0.5 mg/mL in a Krebs-HEPES solution (in mM: NaCl, 144; KCl, 5.9; MgCl2, 1.2; CaCl2, 2; HEPES, 10; glucose, 11; at pH 7.3) at 37° C. After 3 hours, the medium was removed and the formazan precipitated in the solution was dissolved in dimethylsulfoxide. Then, the absorbance was measured in a plate reader (Labsystems iEMS Reader MF), at 500 nm. The data were represented taking the result of the baseline slices, i.e., those not subjected to OGD, as 100% viability.
# [1] = system: SH-SY5Y human neuroblastoma cell line; experiment: Cell toxicity study, LDH release, SH-SY5Y cells incubated 48 hours; assay type: cell-based; conditions: 100 μM, 48 hours incubation
# Experimental: The cell toxicity studies were performed on the SH-SY5Y human neuroblastoma cell line, incubating said cells for 48 hours with the compound under study. The cell viability was assessed by quantifying the release of lactate dehydrogenase (LDH), which is a cytoplasmic enzyme which is released into the extracellular medium when the integrity of the cytoplasmic membrane is lost.
# [2] = system: SH-SY5Y human neuroblastoma cells; experiment: Neuroprotection against cell death induced by rotenone plus oligomycin-A (oxidative stress), LDH release; assay type: cell-based
# Experimental: An oxidative stress model consists of blocking mitochondrial respiratory chain complexes I and V by means of the combination of rotenone plus oligomycin-A, respectively. As a result of the interruption of the mitochondrial respiratory chain, the cell is unable to continue producing ATP, and the free radicals are generated exceeding the capacity of the cell to neutralize them, and as a result, cell death occurs.
# SH-SY5Y human neuroblastoma cells were cultured in a monolayer in 75 cm^2 flasks with a vented stopper. The culture medium used was Dulbecco's Modified Eagle's Medium (DMEM) with a high glucose content ([…]) and supplemented with 10% foetal bovine serum, 2 mM L-Glutamine, 50 IU/mL penicillin and 50 μg/mL streptomycin.
# The cell cultures were maintained in an incubator at 37° C. in a humid environment, with 5% CO2 and 95% air. The culture medium was changed twice a week, performing 1:4 passages when the cells reached 70-80% confluence. To perform the passages, the cells were detached by means of their treatment with trypsin-EDTA.
# For the cell viability assays, the cells were seeded in sterile 48-well plates at a density of 80,000 cells/well. The experiments were performed 24-48 hours after their seeding.
# To evaluate the neuroprotective effect of the compounds, the SH-SY5Y cells were preincubated for 24 hours with the compound under study, and subsequently incubated for 24 hours with the compound under study in the presence of the toxic substances (a combination of 10 μM rotenone and 1 μM oligomycin-A); at the end of this period the cell viability was evaluated by quantifying the release of the LDH enzyme.
# The assessment of this enzyme was performed by means of a commercial kit (Cytotoxicity detection kit-LDH; Roche) following the instructions of the company. The samples were colorimetrically analyzed in a plate reader (Labsystems iEMS Reader MF), using the suitable filter at 490-600 nm and obtaining the absorbance values.
# The % of cell death was defined as the % of LDH released into the extracellular medium with respect to the total (sum of intra- and extracellular LDH).
# Compounds Ic and Ib were studied at four concentrations (0.001, 0.003, 0.01 and 0.03 μM), chondroitin sulphate (supplied by Bioibérica, S.A.) was assayed at two concentrations (10 and 60 μM) and trolox (Sigma Aldrich) was assayed at two concentrations (30 and 300 μM). The experiment also included the baseline (SH-SY5Y cells in the absence of compound and of toxic stimulus) and the control (SH-SY5Y cells cultured in the absence of compound and in the presence of the toxic stimulus rotenone plus oligomycin).
# [3] = system: mice (photothrombotic stroke model); experiment: Experimental photothrombotic stroke model, cortical infarction volume; assay type: in vivo, mouse; conditions: 15 mg/kg i.p.
# Description: Neuronal death occurs during brain ischemia or stroke; therefore a medicament with a neuroprotective profile can have a therapeutic potential in patients who have suffered from a cerebral infarction or stroke. To explore if the compounds of formula (I) can offer neuroprotection in vivo, the experimental photothrombotic stroke model was used. In the photothrombosis model a focal cerebral infarction is induced in the area of the cortex illuminated by means of a cold light source in mice previously treated with the Rose Bengal stain; this stain is photosensitive and produces free radicals when it is stimulated with light, causing lesions in the surrounding vascular endothelium, which causes platelet aggregation and the formation of thrombi in the microvessels of the cerebral cortex (Non-invasive induction of focal cerebral ischemia in mice by photothrombosis of cortical microvessels: characterization of inflammatory responses, M. Schroeter et al., J Neurosci Methods. 117(1), 43-49. (2002); Melatonin reduces infarction volume in a photothrombotic stroke model in the wild-type but not cyclooxygenase-1-gene knockout mice, L Y. Zhou et al., J Pineal Res. 41(2), 150-156. (2006)).
# Adult male Swiss breed mice from Harlan laboratories (Barcelona), with a weight of about 30 g, were used. Once anaesthetised with isoflurane, the mice were placed in a stereotaxic frame, maintaining their rectal temperature at 37±0.5° C. during the entire procedure. Subsequently, the cranium was exposed by means of a dorsomedial incision in the skin and the periosteum was removed. By means of the use of a micromanipulator, a fibre-optic cable was placed to emit a beam of light of 1.9 mm in diameter and 3000° K, connected to a cold light source (Zeiss KL 1500), in 2.0 mm posterior and 3.0 mm lateral to Bregma on the right side. According to the mouse brain atlas (Franklin and Paxinos, 1986), the sensitive-motor cortex, the putamen caudate and the hippocampus are right below this stereotaxic position. Then, the mice were injected with 1 mg of the Rose Bengal photosensitive probe and the brain was illuminated through the intact cranium for 30 minutes. Finally, the skin was sutured and the animals were left in a cage until their recovery under observation.
# The animals were sacrificed by decapitation 72 hours after the ischemia. […]
# To quantify the cortical cerebral infarction volume, the sections stained with TTC were scanned on both their rostral and caudal part and by means of the image analysis programme ImageJ 1.41 (National Institutes of Health, Bethesda, Md., USA) the area of the ipsi-, contralateral cortex and the cerebral infarction of each of the sections scanned, both in the caudal and rostral part, was quantified. Subsequently, the cerebral infarction volume was calculated. […]
structure (smiles),measurement,setting,value
"CC(=O)N[C@@H](CS)C(=O)O [N-acetylcysteine, reference compound]",viability at 10000 µM,"rat hippocampal slices; Rattus norvegicus, 10 mM, 15 minutes OGD, 2 hours reoxygenation, baseline 100%, control 67%, read-out: maximum statistically significant protection (cell viability, MTT)",83%
CO[C@H]1OC(COS(=O)(=O)[O-])[C@@H](O)[C@H](O[C@@H]2OC(C(=O)[O-])[C@@H](O)[C@H](O)C2O)C1NC(C)=O.[Na+].[Na+] (stereo partly drawn) [compound Ib],cell toxicity (release of LDH),[1],did not show toxicity
same,maximum statistically significant protection against cell death (% of released LDH) induced by rotenone and oligomycin,"[2]; 0.03 μM, 24 h preincubation + 24 h with 10 μM rotenone and 1 μM oligomycin-A",40%
same,protective effect compared with chondroitin sulphate and trolox,"[2]; Ic, Ib at 0.001-0.03 μM vs chondroitin sulphate 10 and 60 μM, trolox 30 and 300 μM",more effective than chondroitin sulphate and than trolox
same,efficacy in comparison with N-acetylcysteine,"rat hippocampal slices; Ic 0.3 and 1 μM, Ib 1 and 3 μM vs N-acetylcysteine 10 mM",higher efficacy
same,viability at 3 µM,"rat hippocampal slices; Rattus norvegicus, 3 μM, 15 minutes OGD, 2 hours reoxygenation, baseline 100%, control 67%, read-out: maximum statistically significant protection (cell viability, MTT)",85%
"COc1ccc2[nH]cc(CCNC(C)=O)c2c1 [melatonin, reference compound]",cortical infarction volume,"[3]; 72 hours after ischemia, saline 6.1±2.18%, mean and standard deviation",4.3±1.63%
same,protection (reduction of cortical infarction volume),[3]; p<0.05 vs saline,29%
"Cc1c(C)c2c(c(C)c1O)CCC(C)(C(=O)O)O2 (stereo not drawn) [trolox, reference compound]",effect on cell death induced by rotenone and oligomycin,[2]; 30 and 300 μM,reduced cell death
